Molecules are shown by their SMILES. Activity calls are given as the source filed them. The rule behind the calls is not given here. *1 amine or outer side, *2 acyl side, *3 side chain or, on linkers, in order; H or OH if unused. Where a SMILES comes first, the peptide text is derived from it. Bridges are numbered along the chain shown (N, C = ends). [ ]: non-standard residue; d: D form. X1 = C#CCCC[C@H](O[*:2])C(C)(C)C(=O)[*:1]; X3 = C=CCCC[C@H](O[*:2])C(C)(C)C(=O)[*:1]; X2 = CCCCC[C@H](O[*:2])C(C)(C)C(=O)[*:1]; Hmp(2R,3S) = CC[C@H](C)[C@@H](O)C(=O)O; PhLac = O=C(O)[C@@H](O)Cc1ccccc1; NMeV = CN[C@H](C(=O)O)C(C)C; NMeA = CN[C@@H](C)C(=O)O

Experimental findings from ChEMBL document CHEMBL2146422, “Viequeamide A, a cytotoxic member of the kulolide superfamily of cyclic depsipeptides from a marine button cyanobacterium” (2012) are described below.

In assay [1] the test system is NCI-H460. The experiment in a line: Cytotoxicity against human H460 cells at 30 ug/mL after 48 hrs by MTT assay. It counts as functional, cell-based. Background: Tetrazolium assays rely on reduction of a dye to a coloured formazan, in cell work by metabolically active cells.
Assay [2] relates to NCI-H460. The experiment in a line: Cytotoxicity against human H460 cells after 48 hrs by MTT assay. The class given is functional. The conditions noted are these: NCI-H460, 48 h, read-out: LD50 (the source's name).

On to `C#CCCC[C@@H]1OC(=O)[C@H](C(C)C)NC(=O)[C@H](C)N(C)C(=O)[C@@H]2CCCN2C(=O)[C@H](Cc2ccccc2)OC(=O)[C@H](C(C)C)N(C)C(=O)[C@H](C(C)C)NC(=O)C1(C)C` (V[NMeV][PhLac]P[NMeA]V; linker N-C via X1), for which the outcome in assay [1] was inactive.
In the case of `CCCCC[C@@H]1OC(=O)[C@H](C(C)C)NC(=O)[C@H](C)N(C)C(=O)[C@@H]2CCCN2C(=O)[C@H](Cc2ccccc2)OC(=O)[C@H](C(C)C)N(C)C(=O)[C@H](C(C)C)NC(=O)C1(C)C` (V[NMeV][PhLac]P[NMeA]V; linker N-C via X2), the outcome in assay [1] was inactive.
As for `C=CCCC[C@@H]1OC(=O)[C@H](C(C)C)NC(=O)[C@H](C)N(C)C(=O)[C@@H]2CCCN2C(=O)[C@H](Cc2ccccc2)OC(=O)[C@H](C(C)C)N(C)C(=O)[C@H](C(C)C)NC(=O)C1(C)C` (V[NMeV][PhLac]P[NMeA]V; linker N-C via X3), the result in assay [1] was inactive.
`C#CCCC[C@@H]1OC(=O)[C@H]([C@@H](C)O)NC(=O)[C@H](C(C)C)N(C)C(=O)[C@@H]2CCCN2C(=O)[C@@H]([C@@H](C)CC)OC(=O)[C@H](C(C)C)N(C)C(=O)[C@H](C(C)C)NC(=O)C1(C)C` [VIEQUEAMIDE A] (V[NMeV][Hmp(2R,3S)]P[NMeV]T; linker N-C via X1): in assay [2], the CC50 is 0.06 µM.
